Each structure is given as a SMILES string.

The assay has as its target T1, Human Factor D (Homo sapiens, UniProt P00746).
T1 construct: purified from human serum; purchased Complement Technology, Inc; host or cells: human serum (natural protein, not recombinant)
The experiment in a line: Human Factor D Assay. The settings on record: Table 1; Factor D 80 nM, substrate Z-L-Lys-SBzl; read-out: IC50. The format is biochemical. The procedure: Human Factor D (purified from human serum, Complement Technology, Inc.) at 80 nM final concentration is incubated with test compound at various concentrations for 5 minutes at room temperature in 50 mM Tris, 1M NaCl, pH 7.5. A synthetic substrate Z-L-Lys-SBzl and DTNB (Ellman's reagent) are added to final concentrations of 100 μM each. Absorbance at 405 nm (A405) is recorded at 30 second intervals for 30 minutes using a microplate spectrophotometer. IC50 values are calculated by nonlinear regression of complement Factor D reaction rates as a function of test compound concentration.

T1 sequence (P00746 26-253): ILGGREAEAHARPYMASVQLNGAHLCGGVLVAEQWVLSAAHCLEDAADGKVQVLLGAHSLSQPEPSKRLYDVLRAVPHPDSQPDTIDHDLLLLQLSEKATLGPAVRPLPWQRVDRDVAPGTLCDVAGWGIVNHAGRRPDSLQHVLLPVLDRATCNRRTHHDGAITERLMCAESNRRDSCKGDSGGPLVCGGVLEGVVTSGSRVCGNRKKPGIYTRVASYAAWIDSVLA

Turning to `NC(=O)c1nn(CC(=O)N2C[C@H](F)C[C@H]2C(=O)Nc2cccc(OC(F)(F)F)c2F)c2ccc(NC(=O)Nc3ccon3)cc12` [Compound 25, 1-(2-((2S,4R)-4-fluoro-2-(2-fluoro-3-(trifluoromethoxy)phenylcarbamoyl)pyrrolidin-1-yl)-2-oxoethyl)-5-(3-isoxazol-3-ylureido)-1H-indazole-3-carboxamide], the IC50 (usually the concentration needed to halve the response being measured) was < 1000 nM. On to `NC(=O)c1nn(CC(=O)N2C[C@H](F)C[C@H]2C(=O)Nc2cccc(OC(F)(F)F)c2F)c2ccc(NC(=O)N3CCCC(F)(F)C3)cc12` [Compound 26], for which the IC50 was < 1000 nM. With `NC(=O)c1nn(CC(=O)N2[C@@H]3C[C@@H]3C[C@H]2C(=O)Nc2cccc(OC(F)(F)F)c2F)c2ccc(NC(=O)N3CCCC(F)(F)C3)cc12` [Compound 27, 5-(3,3-difluoropiperidine-1-carboxamido)-1-(2-((1R,3S,5R)-3-(2-fluoro-3-(trifluoromethoxy)phenylcarbamoyl)-2-azabicylco[3.1.0]hexan-2-yl)-2-oxoethyl)-1H-indazole-3-carboxamide], the IC50 is < 1000 nM.

With `NC(=O)c1nn(CC(=O)N2[C@@H]3C[C@@H]3C[C@H]2C(=O)Nc2cccc(-c3ccccc3Cl)c2F)c2ccc(NC(=O)N3CCCC(F)(F)C3)cc12` [Compound 28, 1-(2-((1R,3S,5R)-3-(2′-chloro-2-fluorobiphenyl-3-ylcarbamoyl)-2-azabicyclo[3.1.0]hexan-2-yl)-2-oxoethyl)-5-(3,3-difluoropiperidine-1-carboxamido)-1H-indazole-3-carboxamide], the IC50 was < 1000 nM.

With `NC(=O)c1nn(CC(=O)N2C[C@H](F)C[C@H]2C(=O)Nc2cccc(-c3ncccc3Cl)c2F)c2ccc(NC(=O)N3CCCC(F)(F)C3)cc12` [Compound 29, 1-(2-((2S,4R)-2-(3-(3-chloropyridin-2-yl)-2-fluorophenylcarbamoyl)-4-fluoropyrrolidin-1-yl)-2-oxoethyl)-5-(3,3-difluoropiperidine-1-carboxamido)-1H-indazole-3-carboxamide], the half-inhibitory concentration (IC50) is < 1000 nM.

As for `NC(=O)c1nn(CC(=O)N2C[C@H](F)C[C@H]2C(=O)Nc2cccc(-c3ccccc3Cl)c2F)c2ccc(NC(=O)N3CCC(F)(F)C3)cc12` [Compound 30, 1-(2-((2S,4R)-2-(2′-chloro-2-fluorobiphenyl-3-ylcarbamoyl)-4-fluoropyrrolidin-1-yl)-2-oxoethyl)-5-(3,3-difluoropyrrolidine-1-carboxamido)-1H-indazole-3-carboxamide], the concentration for half-maximal inhibition (IC50) is < 1000 nM. As to `NC(=O)c1nn(CC(=O)N2C[C@H](F)C[C@H]2C(=O)Nc2cccc(-c3ccccc3Cl)c2F)c2ccc(NC(=O)N3CCC(F)(F)CC3)cc12` [Compound 31, 1-(2-((2S,4R)-2-(2′-chloro-2-fluorobiphenyl-3-ylcarbamoyl)-4-fluoropyrrolidin-1-yl)-2-oxoethyl)-5-(4,4-difluoropiperidine-1-carboxamido)-1H-indazole-3-carboxamide], the IC50 is < 1000 nM.

As for `NC(=O)c1nn(CC(=O)N2C[C@H](F)C[C@H]2C(=O)Nc2cccc(-c3ccccc3Cl)c2F)c2ccc(NC(=O)NCc3ncccn3)cc12` [Compound 32, 1-(2-((2S,4R)-2-(2′-chloro-2-fluorobiphenyl-3-ylcarbamoyl)-4-fluoropyrrolidin-1-yl)-2-oxoethyl)-5-(3-(pyrimidin-2-ylmethyl)ureido)-1H-indazole-3-carboxamide], the IC50 is < 1000 nM.

As to `NC(=O)c1nn(CC(=O)N2C[C@H](F)C[C@H]2C(=O)Nc2cccc(Br)n2)c2ccc(NC(=O)N3CCCC(F)(F)C3)cc12` [Compound 33, 1-(2-((2S,4R)-2-(6-bromopyridin-2-ylcarbamoyl)-4-fluoropyrrolidin-1-yl)-2-oxoethyl)-5-(3,3-difluoropiperidine-1-carboxamido)-1H-indazole-3-carboxamide], the half-inhibitory concentration (IC50) was < 1000 nM.

The values above are taken from US10138225B2 (Achillion Pharmaceuticals, Inc., priority 2015, dated 2018).
